Columns and labels:
[1] = system: oedema induced by TPA (phorbol 12-myristate-13-acetate) on mouse ear; assay: Model of acute inflammation on mouse ear: oedema induced by TPA; assay type: in vivo; conditions: for inhibition of the TPA-induced inflammation: concentration of 1%, TPA test in mice; for IC50 (concentration at which 50% inhibition of the oedema induced by TPA alone is observed): applied with 0.01% TPA in ethanol, oedema measured 6 hours after application
Procedure: The anti-inflammatory activities of the compound of formula (I) in racemic form, of metronidazole and of flurbiprofen (racemic) were measured in an in vivo test performed on a mouse model.
The model used is the model of mouse ear inflammation induced by a single application of TPA (phorbol 12-myristate-13-acetate). Female Balb/c ByJlco mice are used.
The oedema is induced by applying to the ear 20 μl of 0.01% TPA dissolved in ethanol.
The racemic compound of formula (I) is dissolved, at the desired concentration, in the 0.01% TPA solution and thus applied to a group of mice at the same time as the TPA.
Similarly, flurbiprofen (racemic) is dissolved, at the desired concentration, in the 0.01% TPA solution and thus applied to another group of mice at the same time as the TPA.
Finally, metronidazole is dissolved, at the desired concentration, in the 0.01% TPA solution and thus applied to another group of mice at the same time as the TPA.
The oedema is evaluated, 6 hours after application, by measuring the thickness of the ear using an Oditest® micrometer.
The TPA-induced oedema is evaluated relative to the ethanol vehicle group. The inhibition, with the racemic compound of formula (I), with flurbiprofen (racemic) or with metronidazole, of the oedema induced by TPA alone is expressed by the IC50.
The IC50 corresponds to the concentration (or dose) at which 50% inhibition of the oedema induced by TPA alone is observed.

[2] = system: oedema induced by arachidonic acid (AA) on mouse ear; assay: Model of acute inflammation on mouse ear: arachidonic acid-induced oedema; assay type: in vivo; conditions: for IC50 (concentration at which 50% inhibition of the oedema induced by AA alone is observed): topical on mouse ear, oedema measured 1 hour after application, % weight per volume of solution
Procedure: The anti-inflammatory activities of the compound of formula (I) in racemic form, of the S enantiomer of the compound of formula (I), of metronidazole and of flurbiprofen were measured in an in vivo test performed on a mouse model. This model consists in inducing inflammation of the mouse ear with a single application of arachidonic acid (AA). Female Balb/c ByJlco mice are used. The oedema is induced by applying to the mouse's ear 20 μL of AA dissolved to 4% in a 1/1 THF/methanol mixture. The anti-inflammatory activities of the S enantiomer of the compound of formula (I), of the compound of formula (I) in racemic form, of metronidazole and of flurbiprofen were evaluated after topical application onto the inner face of the mouse's ear of 20 μL of a solution of the compound in a 1/1 THF/methanol mixture containing 4% AA.
Solutions containing 0.01%; 0.03%; 0.1%; 0.3%; 1% and 2% of the test compound are thus prepared. The percentages correspond to the weight of the test compound per volume of solution. The oedema is evaluated, 1 hour after application, by measuring the thickness of the ear using an Oditest® micrometer. The oedema induced by AA alone is evaluated, 1 hour after application, by measuring the thickness of the ear using an Oditest® micrometer. It is evaluated relative to a group comprising only the vehicle (1/1 THF/methanol).
The inhibition of the oedema is expressed as a percentage of reduction, by the test molecule and at the test concentration, of the oedema induced by AA alone.
The IC50 corresponds to the concentration (or dose) at which 50% inhibition of the oedema induced by AA alone is observed.

[3] = system: human neonatal keratinocytes; assay: Stability on keratinocyte cultures; assay type: in vitro ADME; conditions: human keratinocyte cultures
Procedure: (§1) The stability on keratinocyte cultures is evaluated using human neonatal keratinocytes (Cell'N Tech) cultured in a 75 cm^2 flask and detached at 90-100% of confluence with vegetable trypsin (trypLE GIBCO). The compound of formula (I) was tested at 2 μM in the medium CNT-057 (Cell'N Tech) supplemented with 0.1% pluronic acid in 24-well plates. The final DMSO concentration is 0.1%. Degradation kinetics are performed with a Tecan EVO robot over 24 hours. The samples taken are then assayed by LC/MS/MS (Micromass) in comparison with a calibration range of the test product, prepared under the same conditions as the samples (⅓ culture medium and ⅔ methanol). The chromatographic conditions are optimized for each product. An assay of the appearance of metronidazole is also performed using these same samples.

[4] = Stability on keratinocyte cultures; assay type: in vitro ADME, human; conditions: 2 μM, human neonatal keratinocyte culture, kinetics over 24 hours, LC/MS/MS; read-out: half-life time (t1/2) (converted)
Procedure: as §1

C[C@H](C(=O)O)c1ccc(-c2ccccc2)c(F)c1 [(S)-flurbiprofen]
inhibition of the TPA-induced inflammation [1]: 70%

CC(C(=O)O)c1ccc(-c2ccccc2)c(F)c1 (racemic) [flurbiprofen (racemic), flurbiprofen]
inhibition of the oedema induced by AA alone ([2]; dose of 0.1%, topical, 1 hour after application): 60%
IC50 (concentration at which 50% inhibition of the oedema induced by AA alone is observed) [2]: 0.037%
IC50 (concentration at which 50% inhibition of the oedema induced by TPA alone is observed) [1]: 0.22%

Cc1ncc([N+](=O)[O-])n1CCO [metronidazole]
anti-inflammatory activity ([2]; AA-induced mouse ear oedema, result in words): no anti-inflammatory activity
anti-inflammatory activity ([1]; TPA-induced mouse ear oedema, result in words): no anti-inflammatory activity

C[C@@H](C(=O)O)c1ccc(-c2ccccc2)c(F)c1 [(R)-flurbiprofen]
inhibition of the TPA-induced inflammation [1]: 80%

Cc1ncc([N+](=O)[O-])n1CCOC(=O)C(C)c1ccc(-c2ccccc2)c(F)c1 (racemic) [2-(2-methyl-5-nitroimidazol-1-yl)ethyl 2-(2-fluorobiphenyl-4-yl)propionate]
anti-inflammatory activity compared with flurbiprofen ([2]; dose of 1%, AA-induced mouse ear oedema, result in words): equivalent to that of flurbiprofen (racemic) at the 0.1% dose
IC50 (concentration at which 50% inhibition of the oedema induced by TPA alone is observed) [1]: 0.22%
hydrolysis / stability of the ester on keratinocyte cultures [3]: specifically cleaved in keratinocytes
half-life at 2 μM [4]: 6 h

Cc1ncc([N+](=O)[O-])n1CCOC(=O)C1CCn2c(C(=O)c3ccccc3)ccc21 (stereo not shown) [metronidazole ester with ketorolac]
hydrolysis / stability of the ester on keratinocyte cultures [3]: do not become hydrolysed

Cc1ncc([N+](=O)[O-])n1CCOC(=O)[C@H](C)c1ccc(-c2ccccc2)c(F)c1 [2-(2-methyl-5-nitroimidazol-1-yl)ethyl (R)-2-(2-fluorobiphenyl-4-yl)propionate]
inhibition of the TPA-induced inflammation [1]: 85%

COc1ccc2c(c1)c(CC(=O)OCCn1c([N+](=O)[O-])cnc1C)c(C)n2C(=O)c1ccc(Cl)cc1 [metronidazole ester with indomethacin]
hydrolysis / stability of the ester on keratinocyte cultures [3]: do not become hydrolysed

Cc1ncc([N+](=O)[O-])n1CCOC(=O)[C@@H](C)c1ccc(-c2ccccc2)c(F)c1 [2-(2-methyl-5-nitroimidazol-1-yl)ethyl (S)-2-(2-fluorobiphenyl-4-yl)propionate]
IC50 (concentration at which 50% inhibition of the oedema induced by AA alone is observed) [2]: 1%
inhibition of the TPA-induced inflammation [1]: 95%
half-life at 2 μM [4]: 18 h

Cc1ncc([N+](=O)[O-])n1CCOC(=O)c1cccnc1Nc1cccc(C(F)(F)F)c1 [metronidazole ester with niflumic acid]
hydrolysis / stability of the ester on keratinocyte cultures [3]: do not become hydrolysed

Cc1ncc([N+](=O)[O-])n1CCOC(=O)c1cc(-c2ccc(F)cc2F)ccc1O [metronidazole ester with diflunisal]
hydrolysis / stability of the ester on keratinocyte cultures [3]: do not become hydrolysed
